Experimental data: patent US11116784B2, “Niacinamide (NAM) in ischemic tissue injury” (Beth Israel Deaconess Medical Center, Inc., priority 2016, dated 2021)
“Also recorded” adds a separate entry of the source.

Columns and labels:
explanted kidneys = experiment: NAD in explanted kidneys stored in UW Belzer preservation solution; set-up: species or system mouse; conditions: 5 μM P7C3 in ice-cold UW Belzer solution, 16 hours, vs UW Belzer alone
Procedure: (§1) A, To mimic donor organ harvest, deeply anesthetized mice were flushed intravascularly with ice-cold UW Belzer solution, then placed into ice cold solutions of UW-Belzer with or without 5 μM of P7C3, NAMPT agonist. After 16 hours for the explanted kidneys, organs were analyzed for levels of NAD (pg/μg of protein). B, To mimic donor organ harvest, deeply anesthetized mice were flushed intravascularly with ice-cold UW Belzer solution, then placed into ice cold solutions of UW-Belzer with or without 500 μM, 1 mM or 10 mM Nam. After 3 hours for the explanted hearts, organs were analyzed for levels of NAD (pg/μg of protein). C, NAMPT is the rate-limiting enzyme for the conversion of Nam to NAD via the intermediate NMN (nicotinamide mononucleotide).
(§2) To further expand upon the results from the retrospective cohort of patient study, the conditions of donor organ harvest were mimicked using mice in hopes of improving post-implantation graft performance (FIG. 23). In this experiment, kidney and heart were harvested and Nam or P7C3, a NAMPT agonist, were added to the preservation solution. Upon incubation of kidney with P7C3 in the preservation solution, NAD levels increased as compared to kidney incubated with the UW Belzer solution alone (FIG. 23A). […]

[1] = system: NNMT in cultured renal tubular cells (IMCD3); conditions: 24 hr exposure to 1-Me-Nam
Procedure: LC-MS assays were developed for multiplex quantification of Nam, NAD, and β-hydroxybutyrate (β-OHB) from cellular experiments. NAD measurements reflect total NAD^+ plus NADH. Briefly, conditioned medium was extracted with methanol (80% methanol final concentration) spiked with isotopic standards for Nam and β-OHB (CDN Isotopes, Inc.). Precipitated proteins were removed by centrifugation, and supernatants were analyzed directly. For analysis of cell lysates, cells were washed with ice-cold PBS, scraped and lysed on dry ice into methanol containing isotopic standards. After extraction, cell and media supernatants were analyzed by LC-MS/MS using reverse-phase chromatography (NAM and NAD/NADH) or hydrophilic interaction chromatography (β-OHB) coupled to tandem mass spectrometry using an API 5000 triple quadruple mass spectrometer. Analytes were quantified by multiple reaction monitoring using the following m/z transitions: β-OHB 103.1>59, β-OHB IS 105.1>60, NAM 123.3>80.2, NAM IS 127.3>84.2, NAD/NADH 664.2>542.0. Eluting peaks were quantified by area under the curve (AUC).
Mouse intermedullary collecting duct (IMCD3) cells were obtained from ATCC. […] Cells were transfected with siRNA targeting mouse PGC1, HCAR2 or a negative control siRNA (Qiagen) for 24 h. […] Prostaglandin E2 (PGE2) was measured in the conditioned media 24-72 hours after treatment.

PGC1α^−/− animals = experiment: Intracardiac lipids after Nam; assay type: in vivo, mouse; conditions: Nam 400 mg/kg IP
PGC1α KO mice = experiment: Cardiac IRI with pressure volume loops in PGC1α KO mice; assay type: in vivo, mouse; conditions: Nam 400 mg/kg IP, one dose before IRI, two after; 2 weeks after 45 min coronary occlusion
Procedure: For cardiac IRI surgery, mice were anesthetized, intubated, and placed on a rodent ventilator. After thoracotomy, the left anterior descending artery was identified and ligated with a 7-0 silk suture tied around a specialized 30 gauge catheter. The animal remained under anesthesia and ventilation for 45 minutes of ischemia. Reperfusio was achieved by cutting the suture and re-establishing arterial perfusion. The thoracotomy was then sutured closed and animals recovered with warmed saline injected intraperitoneally.
Pressure volume loops were performed to assess cardiac parameters. Cardiac function was measured in mice using the left ventricle (LV) pressure-volume and echocardiography 2 weeks after cardiac IRI or sham control procedure. After 2% isolfurane inhalant anesthesia, the pressure-volume parameters were measured using a 1.4 French microtip pressure-volume catheter. The catheter was first inserted into the right common carotid artery and then gently advanced into the LV to obtain LV hemodynamic measurements. Data were recorded using a Powerlab system. Beat-by-beat pressure-volume parameters including heart rate, stroke volume, stroke work, and cardiac output were measured and analyzed using Cardiosoft Pro software. […] Two-dimensional guided M-mode images were recorded. […]

mice [2] = experiment: Renal NAD and β-OHB after exogenous Nam in mice; assay type: in vivo, mouse
Procedure: All chemicals were purchased from Sigma-Aldrich unless otherwise noted. Niacinamide was given by intraperitoneal injection of 400 mg/kg/day×4 days in saline, with the final dose an hour prior to IRI surgery. In rescue experiments, the same dose was administered once 18 hours after reperfusion. Indomethacin was given by intraperitoneal injection of 10 mg/kg in 0.1 M sodium carbonate/saline an hour prior to IRI. […] In brief, amino acids, amines, acylcarnitines, nucleotides, and other cationic polar metabolites were measured in 10 μl of kidney homogenate using hydrophilic interaction liquid chromatography coupled with nontargeted, positive ion mode MS analysis on an Exactive Plus Orbitrap MS (Thermo Scientific). Polar and non-polar lipids were measured in 10 μl of kidney homogenate using C8 chromatography and nontargeted, positive ion mode MS analysis on a Q Exactive MS (Thermo Scientific). […] Results were analyzed in MetaboAnalyst (Xia et al., Nucleic Acids Res. 40 (Web Server issue): […]-33 (2012)). PGE2 was measured in mouse kidney tissue by ELISA (Cayman Chemical). β-OHB (Cayman Chemical) and total NAD (BioVision) was measured in mouse kidney tissue by colorimetric assays. […]

[3] = system: renal tubular cells (IMCD3); experiment: PGE2 in conditioned media of renal tubular cells; assay type: cell-based, mouse
Procedure: Mouse intermedullary collecting duct (IMCD3) cells were obtained from ATCC. […] Cells were transfected with siRNA targeting mouse PGC1, HCAR2 or a negative control siRNA (Qiagen) for 24 h. Niacin, mepenzolate bromide, β-hydroxybutyrate, the NAMPT inhibitor FK866 ([…] et al. Cancer research 2003; 63, 7436-7442), and niacinamide were diluted to the indicated concentrations in serum-free cell culture medium. Prostaglandin E2 (PGE2) was measured in the conditioned media 24-72 hours after treatment.

explanted hearts = experiment: NAD in explanted hearts stored in UW Belzer preservation solution; set-up: species or system mouse; conditions: 500 μM, 1 mM or 10 mM Nam in ice-cold UW Belzer solution, 3 hours, vs UW Belzer alone
Procedure: as §1, §2

[4] = system: healthy 8-12 wk old male mice; experiment: Renal blood flow by Doppler ultrasound in healthy mice; assay type: in vivo, mouse; conditions: Nam 400 mg/kg intraperitoneal x 1; 4 h after injection vs pre-Nam
Excerpt: The full method is previously described (Tran et al. J Clin Invest 2011; 121, 4003-4014). Briefly, mice were lightly anesthetized, secured to a heat-controlled stage, and continuously monitored for respiration, ECG, and core temperature. A high frequency, high resolution digital imaging platform with linear array technology and equipped with a high-frequency linear array probe MS550D (22-55 MHz) was used throughout the study (Vevo 2100 Visual Sonics). The flow volume was modeled as a circular cylinder of length equal to the average velocity time integral and diameter measured empirically (n=3 cardiac cycles), then multiplied by the heart rate (bpm), then converted from mm^3/min to ml/min. All measurements and analyses were performed by a single blinded operator (EVK).

PGC1α^−/− mice = experiment: Renal ischemia-reperfusion injury (IRI) in PGC1α−/− mice with Nam pretreatment; assay type: in vivo, mouse
Procedure: (§3) Renal ischemia-reperfusion injury (IRI) was performed on 8-12 week-old males through two small paramedial dorsal incisions by applying a microvascular clamp to each renal pedicle for 20 minutes. Mice were anesthetized with isoflurane for the duration of surgery and warmed to 37° C. using a servo-controlled heating pad. Incisions were closed in two layers and mice were revived with 1 ml warm saline injected intraperitoneally.
(§4) All chemicals were purchased from Sigma-Aldrich unless otherwise noted. Niacinamide was given by intraperitoneal injection of 400 mg/kg/day×4 days in saline, with the final dose an hour prior to IRI surgery. In rescue experiments, the same dose was administered once 18 hours after reperfusion. Indomethacin was given by intraperitoneal injection of 10 mg/kg in 0.1 M sodium carbonate/saline an hour prior to IRI. […]
(§5) All measurements were performed in a blinded fashion by an independent facility. Creatinine was analyzed by LC/MS-MS at the University of Alabama Birmingham O'Brien Core Center for Acute Kidney Injury Research (NIH P30-DK079337). […]
For metabolomics measurements, snap frozen kidneys were cut to equal weights (20 mg/specimen) and mechanically homogenized into 4 volumes of ice-cold water. […] In brief, amino acids, amines, acylcarnitines, nucleotides, and other cationic polar metabolites were measured in 10 μl of kidney homogenate using hydrophilic interaction liquid chromatography coupled with nontargeted, positive ion mode MS analysis on an Exactive Plus Orbitrap MS (Thermo Scientific). Polar and non-polar lipids were measured in 10 μl of kidney homogenate using C8 chromatography and nontargeted, positive ion mode MS analysis on a Q Exactive MS (Thermo Scientific). […] Results were analyzed in MetaboAnalyst (Xia et al., Nucleic Acids Res. 40 (Web Server issue): W127-33 (2012)). […]

mice [5] = experiment: Cisplatin nephrotoxicity model; assay type: in vivo, mouse; conditions: cisplatin 25 mg/kg IP day 0; Nam 400 mg/kg IP on day −1 and day 0
Excerpt: All chemicals were purchased from Sigma-Aldrich unless otherwise noted.

[6] = system: mice with established AKI; experiment: Nam rescue of established ischemic AKI (single dose 18 h after reperfusion); assay type: in vivo, mouse; conditions: Nam 400 mg/kg IP x 1, 18 h after onset of reperfusion
Procedure: as §3, §4, §5

iNephPGC1α mice = experiment: Renal IRI in iNephPGC1α mice with inhibition of β-OHB signaling or prostaglandin synthesis; assay type: in vivo, mouse; conditions: 10 mg/kg IP one hour prior to IRI
Procedure: as §3, §4, §5

OC(CNc1ccccc1)Cn1c2ccc(Br)cc2c2cc(Br)ccc21 (stereo not shown) [P7C3]
NAD levels in explanted kidneys (explanted kidneys): increased; also recorded: can boost NAD levels

C[n+]1cccc(C(N)=O)c1 [1-Me-Nam, 1-methyl-niacinamide]
NAD in IMCD3 cells [1]: dose-dependent induction of NAD

NC(=O)c1cccnc1 [Nam, niacinamide]
intracardiac di- and tri-acylglycerols (DAG, TAG) (PGC1α^−/− animals): decline markedly
intracardiac phospholipids (PGC1α^−/− animals): largely unaltered
contraction (dP/dt max) (PGC1α KO mice): improved
relaxation (dP/dt min) (PGC1α KO mice): improved
renal NAD (mice [2]; 4 h after a single IP Nam dose (100-400 mg/kg)): dose-dependently increased; also recorded: can increase renal NAD levels
renal β-OHB accumulation relative to normal circulating concentrations (mice [2]; Nam 400 mg/kg IP x 4 d, p<0.0001): ten-fold
PGE2 secretion ([3]; Nam 1 μM for 24 h): augmented
NAD levels in explanted hearts (explanted hearts): increased; also recorded: can boost NAD levels
renal blood flow [4]: improved
renal Nam (PGC1α^−/− mice; Nam 400 mg/kg IP x 4 d, with and without IRI 24 h before tissue collection, p<0.001): increased
post-ischemic fat accumulation (Oil Red O) (PGC1α^−/− mice; Nam pretreatment 400 mg/kg IP x 4 d, 24 h after IRI): normalized
post-ischemic AKI (serum creatinine) (PGC1α^−/− mice; PGC1α−/− mice, Nam 400 mg/kg/day IP x 4 d, last dose 1 h before IRI): completely prevented
cisplatin-induced AKI (serial serum creatinine) (mice [5]): prevented
renal function (serial serum creatinine) in established AKI [6]: significantly improved; also recorded: attenuated; also recorded: rapidly improved

CC(O)CC(=O)O (stereo not drawn) [β-OHB, beta-hydroxybutyrate]
PGE2 secretion in PGC1α-silenced cells ([3]; exogenous β-OHB 5 mM, p<0.0001): still able to induce PGE2 secretion

C[N+]1(C)CCCC(OC(=O)C(O)(c2ccccc2)c2ccccc2)C1 (stereo not shown) [mepenzolate bromide]
renal protection (serum creatinine 24 h after IRI) (iNephPGC1α mice): abolished

COc1ccc2c(c1)c(CC(=O)O)c(C)n2C(=O)c1ccc(Cl)cc1 [indomethacin]
renal protection (serum creatinine 24 h after IRI) (iNephPGC1α mice): abolished
